According to ChEMBL document CHEMBL1201862, “PubChem BioAssay data set” (2004):
Activity calls are given as the source filed them.

How the values were obtained:
[1] = molecular target: Protein-tyrosine kinase 2-beta (Homo sapiens, UniProt Q14289);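 note: potency of inhibitors of PYK2 kinase phosphorylation of poly-GT substrate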
[2] = molecular target: Induced myeloid leukemia cell differentiation protein Mcl-1 (Homo sapiens, UniProt Q07820); assay type: functional
[3] = molecular target: T1, Voltage-gated N-type calcium channel alpha-1B subunit/Amyloid beta A4 precursor protein-binding family A member 1 (Homo sapiens, UniProt Q00975+Q02410); assay type: protein assay
[4] = molecular target: T2, Estrogen receptor beta (Homo sapiens, UniProt Q92731); experiment: blockers of SRC-3 recruitment to ERβ – biochemical, ELISA, streptavidin-HRP readout, orthogonal assay, confirmation (AID 1060)
[5] = molecular target: T3, Heat shock factor protein 1 (Mus musculus, UniProt P38532); experiment: decrease of HSF1-responsive luciferase luminescence – cell-based, NIH3T3, dose retest, confirmation (AID 2382); assay type: functional;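 note: NIH3T3 fibroblasts with HSF1-driven luciferase reporter stressed by proteasome inhibitor MG132; luminescence from HSF1-driven luciferase expression after 8 hours of MG132 stress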
T3 sequence (P38532 whole entry): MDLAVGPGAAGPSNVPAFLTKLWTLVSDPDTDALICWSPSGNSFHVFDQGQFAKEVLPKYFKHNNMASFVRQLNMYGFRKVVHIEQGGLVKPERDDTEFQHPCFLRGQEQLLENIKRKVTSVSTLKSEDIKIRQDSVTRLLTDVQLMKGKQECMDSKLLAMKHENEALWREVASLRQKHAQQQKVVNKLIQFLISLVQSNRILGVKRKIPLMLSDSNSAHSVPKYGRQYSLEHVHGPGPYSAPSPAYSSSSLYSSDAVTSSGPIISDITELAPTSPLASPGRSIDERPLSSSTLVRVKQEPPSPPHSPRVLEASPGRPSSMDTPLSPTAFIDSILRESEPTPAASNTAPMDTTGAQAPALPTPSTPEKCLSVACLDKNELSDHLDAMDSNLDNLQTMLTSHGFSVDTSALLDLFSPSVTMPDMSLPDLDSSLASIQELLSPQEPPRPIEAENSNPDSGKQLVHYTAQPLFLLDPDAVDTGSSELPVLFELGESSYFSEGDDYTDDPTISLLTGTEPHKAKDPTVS

[6] = molecular target: T1, Voltage-gated N-type calcium channel alpha-1B subunit/Amyloid beta A4 precursor protein-binding family A member 1; assay type: protein assay; remark: listed apart in the source
[7] = molecular target: Large T antigen (Simian virus 40, UniProt P03070); assay type: functional, Betapolyomavirus macacae;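 note: Confirmatory-stage PubChem screen for compounds that inhibit SV40 T antigen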
[8] = molecular target: Albumin (Bos taurus, UniProt P02769); experiment: Counterscreen for inhibitors of T-cell receptor (TCR)-CD3 interaction: Fluorescence-based biochemical high throughput dose response assay to identify inhibitors of T-cell receptor (TCR)-CD3 interaction using a TAMRA-labeled BSA probe.; assay type: functional
[9] = molecular target: T1, Voltage-gated N-type calcium channel alpha-1B subunit/Amyloid beta A4 precursor protein-binding family A member 1; experiment: disruptors of Mint-PDZ/N-type channel peptide interaction – biochemical, HTRF, SAR follow-up (AID 2489); assay type: functional
[10] = molecular target: T1, Voltage-gated N-type calcium channel alpha-1B subunit/Amyloid beta A4 precursor protein-binding family A member 1; experiment: disruptors of Mint-PDZ/N-type channel peptide interaction – biochemical, HTRF, set 2, SAR follow-up (AID 434980); assay type: functional
[11] = molecular target: Genome polyprotein (Hepatitis C virus, UniProt Q2Q167); experiment: disruption of hepatitis C core self-association – biochemical, TR-FRET, dose response (AID 2159); design: species or system Hepacivirus hominis;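 note: blocks dimerization of HCV core protein measured by TR-FRET between tagged core106 pairs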
[12] = molecular target: NADPH oxidase 1 (Homo sapiens, UniProt Q9Y5S8); experiment: Late-stage luminescence-based cell-based dose response assay to identify inhibitors of NADPH oxidase 1 (NOX1): Synthesized analogs.; assay type: functional
[13] = molecular target: T4, Microphthalmia-associated transcription factor (Homo sapiens, UniProt O75030); experiment: reducers of TRPM1 reporter luminescence, concentration series – cell-based, SK-MEL-5, cherry-picked, set 3, MITF inhibitor project, dose response (AID 493073); assay type: functional;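 note: SK-MEL-5 melanoma cells with luciferase driven by the MITF target TRPM1 promoter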
T4 sequence (O75030 whole entry): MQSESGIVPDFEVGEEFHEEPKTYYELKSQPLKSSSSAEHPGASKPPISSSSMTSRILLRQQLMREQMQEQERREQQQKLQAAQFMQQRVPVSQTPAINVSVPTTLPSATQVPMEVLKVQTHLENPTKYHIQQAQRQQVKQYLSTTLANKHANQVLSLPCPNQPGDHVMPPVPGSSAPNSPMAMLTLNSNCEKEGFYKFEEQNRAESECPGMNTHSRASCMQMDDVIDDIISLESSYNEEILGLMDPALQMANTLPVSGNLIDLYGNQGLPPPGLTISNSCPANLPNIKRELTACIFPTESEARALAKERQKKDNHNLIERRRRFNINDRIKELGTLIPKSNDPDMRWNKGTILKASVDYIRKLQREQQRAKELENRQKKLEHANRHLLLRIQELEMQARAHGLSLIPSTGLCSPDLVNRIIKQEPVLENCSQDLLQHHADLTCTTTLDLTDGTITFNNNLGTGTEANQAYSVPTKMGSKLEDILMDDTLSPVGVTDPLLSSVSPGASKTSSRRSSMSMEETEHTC

[14] = HEK-293T viability loss after treatment – luminescence, T-cell screen hits, cytotoxicity control for TCR NF-kB inhibitor project, dose response (AID 489026); assay type: functional, cell-based;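 note: cells exposed to compound about 14 hours before the viability readout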
[15] = system: Vero; experiment: inhibition of WNV-induced cytopathic effect – cell-based, CPE readout (AID 1621); assay type: functional; conditions: Chlorocebus sabaeus
[16] = molecular target: Prothrombin (Homo sapiens, UniProt P00734); experiment: Thrombin 1536 HTS Dose Response Confirmation. [Related pubchem assays: 1046 (Thrombin 1536 HTS; hits were confirmed in this assay)]; assay type: functional
[17] = molecular target: T2, Estrogen receptor beta
[18] = molecular target: T5, CAAX prenyl protease 2 (Homo sapiens, UniProt Q9Y256); experiment: inhibition of Ras-converting CAAX protease Rce1 – biochemical, yeast membranes, quenched-peptide fluorescence, cherry-pick, dose response (AID 588849)
T5 sequence (Q9Y256 whole entry): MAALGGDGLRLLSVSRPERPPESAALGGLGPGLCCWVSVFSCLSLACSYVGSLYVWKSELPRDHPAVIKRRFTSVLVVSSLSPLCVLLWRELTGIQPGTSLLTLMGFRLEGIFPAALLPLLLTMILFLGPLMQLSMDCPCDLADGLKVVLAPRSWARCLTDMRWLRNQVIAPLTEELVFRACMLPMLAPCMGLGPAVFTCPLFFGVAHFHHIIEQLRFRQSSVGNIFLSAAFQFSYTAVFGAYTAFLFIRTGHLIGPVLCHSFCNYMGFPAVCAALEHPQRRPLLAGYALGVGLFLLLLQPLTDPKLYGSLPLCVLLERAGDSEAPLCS

[19] = molecular target: Trypsin (Sus scrofa, UniProt P00761); experiment: trypsin protease activity blockade – biochemical, quenched peptide fluorescence, cherry-pick, selectivity assay for Rce1 protease inhibitor project, dose response (AID 488789)
[20] = molecular target: T6, Estrogen receptor (Homo sapiens, UniProt P03372);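 note: potency for inhibiting coactivator peptide recruitment to the receptor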
T6 sequence (P03372 whole entry): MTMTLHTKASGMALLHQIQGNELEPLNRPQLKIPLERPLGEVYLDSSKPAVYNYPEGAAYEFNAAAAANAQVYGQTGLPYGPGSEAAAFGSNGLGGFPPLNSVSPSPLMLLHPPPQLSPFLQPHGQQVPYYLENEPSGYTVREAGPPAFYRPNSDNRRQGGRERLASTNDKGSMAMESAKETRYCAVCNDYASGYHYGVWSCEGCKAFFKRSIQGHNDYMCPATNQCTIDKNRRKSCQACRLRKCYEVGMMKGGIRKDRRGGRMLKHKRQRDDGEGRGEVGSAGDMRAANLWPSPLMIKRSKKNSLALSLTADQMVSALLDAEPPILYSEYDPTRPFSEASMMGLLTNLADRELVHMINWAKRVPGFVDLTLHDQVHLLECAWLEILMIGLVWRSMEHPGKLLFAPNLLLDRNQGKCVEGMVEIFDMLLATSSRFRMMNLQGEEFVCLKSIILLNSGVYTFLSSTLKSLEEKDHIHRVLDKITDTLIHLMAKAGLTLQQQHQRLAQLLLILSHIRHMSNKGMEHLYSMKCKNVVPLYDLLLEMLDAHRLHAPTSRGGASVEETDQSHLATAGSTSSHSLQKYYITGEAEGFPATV

[21] = molecular target: Heat shock protein HSP90 (Homo sapiens, UniProt P07900+P08238); experiment: Hsp90 blockade concentration-response – dose response (AID 712); assay type: functional
[22] = molecular target: Heat shock protein HSP 90-alpha (Homo sapiens, UniProt P07900); experiment: Luminescence-based dose response biochemical high throughput screening assay for inhibitors of the Heat Shock Protein 90 (HSP90). [Related pubchem assays: 1831 (Summary AID.), 1846 (Confirmation screen.), 1789 (Primary screen.)]
[23] = molecular target: T7, Long-chain-fatty-acid--AMP ligase FadD28 (Mycobacterium tuberculosis, UniProt P9WQ59); experiment: Fluorescence polarization aasay to screen for inhibitors that compete for the binding of FadD28 to a bisubstrate Measured in Biochemical System Using Plate Reader - 2147-01_Inhibitor_Dose_CherryPick_Activity.; assay type: functional, Mycobacterium tuberculosis H37Rv
T7 sequence (P9WQ59 whole entry): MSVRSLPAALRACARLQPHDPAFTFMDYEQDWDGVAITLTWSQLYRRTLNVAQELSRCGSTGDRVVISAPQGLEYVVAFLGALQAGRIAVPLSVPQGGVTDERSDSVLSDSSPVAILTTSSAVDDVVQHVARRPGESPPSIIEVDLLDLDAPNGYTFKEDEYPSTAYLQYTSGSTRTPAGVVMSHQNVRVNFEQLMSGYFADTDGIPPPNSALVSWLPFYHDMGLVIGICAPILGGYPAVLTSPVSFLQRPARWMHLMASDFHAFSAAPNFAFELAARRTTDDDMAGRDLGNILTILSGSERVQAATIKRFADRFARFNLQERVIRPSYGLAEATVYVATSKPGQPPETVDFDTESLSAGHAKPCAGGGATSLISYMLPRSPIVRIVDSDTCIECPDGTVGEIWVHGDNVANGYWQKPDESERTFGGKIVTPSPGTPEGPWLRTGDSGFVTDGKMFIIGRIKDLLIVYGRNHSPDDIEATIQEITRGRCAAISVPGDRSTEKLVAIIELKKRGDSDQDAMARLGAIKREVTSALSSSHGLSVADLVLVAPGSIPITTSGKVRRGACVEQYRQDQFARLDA

[24] = CCR5-tropic HIV-1 fusion blockers – cell-based, CCR5-tropic Env, dose response (AID 2279); assay type: functional
[25] = molecular target: T8, Histone-lysine N-methyltransferase NSD2 (Homo sapiens, UniProt O96028); assay type: biochemical
T8 sequence (O96028 whole entry): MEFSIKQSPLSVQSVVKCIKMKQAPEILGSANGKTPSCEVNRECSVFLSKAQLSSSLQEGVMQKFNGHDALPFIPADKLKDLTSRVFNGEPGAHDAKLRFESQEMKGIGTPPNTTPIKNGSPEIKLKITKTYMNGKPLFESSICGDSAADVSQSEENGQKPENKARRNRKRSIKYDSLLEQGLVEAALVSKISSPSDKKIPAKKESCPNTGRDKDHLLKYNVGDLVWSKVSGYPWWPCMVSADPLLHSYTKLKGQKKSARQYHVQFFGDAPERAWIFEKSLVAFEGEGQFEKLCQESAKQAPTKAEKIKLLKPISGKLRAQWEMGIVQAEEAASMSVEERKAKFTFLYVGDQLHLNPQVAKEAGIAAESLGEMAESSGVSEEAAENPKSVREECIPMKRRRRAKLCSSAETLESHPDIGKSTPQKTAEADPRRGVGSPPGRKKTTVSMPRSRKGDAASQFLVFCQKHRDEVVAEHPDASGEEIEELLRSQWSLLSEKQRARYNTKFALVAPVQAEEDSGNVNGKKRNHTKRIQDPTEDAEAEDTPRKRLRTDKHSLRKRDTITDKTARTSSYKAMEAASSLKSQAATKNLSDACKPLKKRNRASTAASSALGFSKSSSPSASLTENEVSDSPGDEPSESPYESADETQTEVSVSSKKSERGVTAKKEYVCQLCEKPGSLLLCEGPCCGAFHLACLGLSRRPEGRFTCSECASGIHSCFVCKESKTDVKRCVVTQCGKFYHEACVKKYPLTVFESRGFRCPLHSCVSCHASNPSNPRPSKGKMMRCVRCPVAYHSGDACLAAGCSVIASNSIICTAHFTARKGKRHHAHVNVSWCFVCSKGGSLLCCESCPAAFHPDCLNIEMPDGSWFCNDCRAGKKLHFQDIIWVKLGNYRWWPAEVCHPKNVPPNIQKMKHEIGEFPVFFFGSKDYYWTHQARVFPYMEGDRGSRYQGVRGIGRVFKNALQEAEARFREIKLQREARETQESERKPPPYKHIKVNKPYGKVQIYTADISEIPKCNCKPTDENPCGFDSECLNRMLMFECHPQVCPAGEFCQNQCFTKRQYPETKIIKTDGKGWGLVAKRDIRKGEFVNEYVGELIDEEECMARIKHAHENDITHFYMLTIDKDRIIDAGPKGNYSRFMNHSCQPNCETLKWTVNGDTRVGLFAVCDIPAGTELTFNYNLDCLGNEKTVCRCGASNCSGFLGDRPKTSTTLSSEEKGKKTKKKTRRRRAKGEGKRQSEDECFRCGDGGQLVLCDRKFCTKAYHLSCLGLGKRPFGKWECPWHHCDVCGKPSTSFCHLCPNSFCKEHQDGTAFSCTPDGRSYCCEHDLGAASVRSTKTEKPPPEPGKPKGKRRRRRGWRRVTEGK

T1 sequence (Q00975 whole entry): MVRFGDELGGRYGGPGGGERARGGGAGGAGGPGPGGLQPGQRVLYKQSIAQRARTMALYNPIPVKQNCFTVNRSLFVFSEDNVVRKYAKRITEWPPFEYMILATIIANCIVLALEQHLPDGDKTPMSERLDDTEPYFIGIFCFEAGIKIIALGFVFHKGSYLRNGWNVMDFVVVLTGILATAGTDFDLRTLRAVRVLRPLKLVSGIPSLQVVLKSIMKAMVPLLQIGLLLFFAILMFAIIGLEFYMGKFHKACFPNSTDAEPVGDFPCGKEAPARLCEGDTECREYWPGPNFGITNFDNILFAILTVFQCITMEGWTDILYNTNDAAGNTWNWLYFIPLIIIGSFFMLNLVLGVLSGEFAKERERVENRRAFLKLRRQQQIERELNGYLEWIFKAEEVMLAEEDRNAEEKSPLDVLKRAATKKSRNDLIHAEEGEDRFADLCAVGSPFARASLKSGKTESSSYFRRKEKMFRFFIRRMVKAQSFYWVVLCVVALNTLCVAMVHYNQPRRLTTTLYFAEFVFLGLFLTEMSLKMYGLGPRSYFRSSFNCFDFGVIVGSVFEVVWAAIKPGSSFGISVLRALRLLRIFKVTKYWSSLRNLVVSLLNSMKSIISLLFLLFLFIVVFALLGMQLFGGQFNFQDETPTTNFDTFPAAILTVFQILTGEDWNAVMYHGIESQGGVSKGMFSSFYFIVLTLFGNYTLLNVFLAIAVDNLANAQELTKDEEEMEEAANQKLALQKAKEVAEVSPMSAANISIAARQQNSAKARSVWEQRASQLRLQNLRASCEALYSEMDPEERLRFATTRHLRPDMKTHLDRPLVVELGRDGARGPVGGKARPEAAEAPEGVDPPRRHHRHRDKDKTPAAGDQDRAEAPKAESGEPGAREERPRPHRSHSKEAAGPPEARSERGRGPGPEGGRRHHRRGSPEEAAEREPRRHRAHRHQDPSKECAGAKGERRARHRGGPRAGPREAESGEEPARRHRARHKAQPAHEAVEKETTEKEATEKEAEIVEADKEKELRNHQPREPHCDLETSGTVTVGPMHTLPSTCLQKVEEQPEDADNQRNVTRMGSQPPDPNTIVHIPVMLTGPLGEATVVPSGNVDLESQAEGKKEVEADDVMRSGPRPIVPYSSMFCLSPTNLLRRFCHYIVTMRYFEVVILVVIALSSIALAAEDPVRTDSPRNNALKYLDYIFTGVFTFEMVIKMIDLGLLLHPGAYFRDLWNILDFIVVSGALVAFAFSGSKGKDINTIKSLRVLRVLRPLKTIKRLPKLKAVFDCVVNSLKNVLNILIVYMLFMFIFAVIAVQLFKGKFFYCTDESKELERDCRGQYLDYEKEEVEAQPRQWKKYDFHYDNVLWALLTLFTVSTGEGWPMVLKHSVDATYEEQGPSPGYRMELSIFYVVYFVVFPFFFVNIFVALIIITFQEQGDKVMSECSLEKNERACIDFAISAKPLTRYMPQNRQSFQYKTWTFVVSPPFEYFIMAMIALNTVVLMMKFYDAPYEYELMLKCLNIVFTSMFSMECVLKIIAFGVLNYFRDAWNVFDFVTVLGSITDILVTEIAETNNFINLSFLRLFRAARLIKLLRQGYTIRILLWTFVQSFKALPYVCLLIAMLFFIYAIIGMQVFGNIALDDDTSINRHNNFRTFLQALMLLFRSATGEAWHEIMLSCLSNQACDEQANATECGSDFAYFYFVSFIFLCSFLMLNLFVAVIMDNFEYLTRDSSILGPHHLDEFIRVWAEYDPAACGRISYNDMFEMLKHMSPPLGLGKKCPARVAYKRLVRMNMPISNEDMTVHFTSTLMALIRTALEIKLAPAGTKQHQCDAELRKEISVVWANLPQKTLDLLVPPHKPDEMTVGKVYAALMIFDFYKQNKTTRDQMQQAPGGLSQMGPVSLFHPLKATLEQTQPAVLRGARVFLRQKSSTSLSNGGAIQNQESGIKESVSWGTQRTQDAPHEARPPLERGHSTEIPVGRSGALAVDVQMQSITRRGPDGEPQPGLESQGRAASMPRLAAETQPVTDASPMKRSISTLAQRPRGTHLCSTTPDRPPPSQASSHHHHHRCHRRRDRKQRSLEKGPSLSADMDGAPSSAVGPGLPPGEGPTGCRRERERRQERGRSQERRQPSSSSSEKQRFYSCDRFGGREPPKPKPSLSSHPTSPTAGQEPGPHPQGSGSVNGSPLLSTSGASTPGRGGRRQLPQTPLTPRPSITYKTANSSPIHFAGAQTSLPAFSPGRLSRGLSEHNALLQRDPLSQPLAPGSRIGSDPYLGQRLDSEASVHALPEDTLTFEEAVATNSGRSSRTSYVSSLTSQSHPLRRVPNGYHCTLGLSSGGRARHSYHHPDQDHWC
T1 sequence (Q02410 whole entry): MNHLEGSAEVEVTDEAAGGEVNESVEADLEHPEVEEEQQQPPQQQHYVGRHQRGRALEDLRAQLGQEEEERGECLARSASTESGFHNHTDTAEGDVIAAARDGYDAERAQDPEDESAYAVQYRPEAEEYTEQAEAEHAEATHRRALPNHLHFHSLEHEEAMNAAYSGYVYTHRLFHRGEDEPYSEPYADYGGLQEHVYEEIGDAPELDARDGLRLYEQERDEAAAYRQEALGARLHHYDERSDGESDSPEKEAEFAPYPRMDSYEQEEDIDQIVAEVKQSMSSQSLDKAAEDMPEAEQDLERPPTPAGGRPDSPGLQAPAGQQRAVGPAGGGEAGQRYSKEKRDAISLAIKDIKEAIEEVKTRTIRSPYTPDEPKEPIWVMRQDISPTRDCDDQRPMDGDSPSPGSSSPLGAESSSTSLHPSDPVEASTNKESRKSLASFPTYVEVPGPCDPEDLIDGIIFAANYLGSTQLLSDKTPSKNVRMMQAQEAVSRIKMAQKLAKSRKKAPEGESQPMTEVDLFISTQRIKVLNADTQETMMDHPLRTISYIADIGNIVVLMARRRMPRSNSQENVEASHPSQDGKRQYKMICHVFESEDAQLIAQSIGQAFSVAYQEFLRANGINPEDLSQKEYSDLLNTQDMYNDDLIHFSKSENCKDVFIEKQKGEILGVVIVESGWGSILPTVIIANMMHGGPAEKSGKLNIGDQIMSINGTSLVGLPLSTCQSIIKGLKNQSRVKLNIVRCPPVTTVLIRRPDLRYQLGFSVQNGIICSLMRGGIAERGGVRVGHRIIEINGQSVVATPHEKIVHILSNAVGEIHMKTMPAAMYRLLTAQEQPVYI
T2 sequence (Q92731 whole entry): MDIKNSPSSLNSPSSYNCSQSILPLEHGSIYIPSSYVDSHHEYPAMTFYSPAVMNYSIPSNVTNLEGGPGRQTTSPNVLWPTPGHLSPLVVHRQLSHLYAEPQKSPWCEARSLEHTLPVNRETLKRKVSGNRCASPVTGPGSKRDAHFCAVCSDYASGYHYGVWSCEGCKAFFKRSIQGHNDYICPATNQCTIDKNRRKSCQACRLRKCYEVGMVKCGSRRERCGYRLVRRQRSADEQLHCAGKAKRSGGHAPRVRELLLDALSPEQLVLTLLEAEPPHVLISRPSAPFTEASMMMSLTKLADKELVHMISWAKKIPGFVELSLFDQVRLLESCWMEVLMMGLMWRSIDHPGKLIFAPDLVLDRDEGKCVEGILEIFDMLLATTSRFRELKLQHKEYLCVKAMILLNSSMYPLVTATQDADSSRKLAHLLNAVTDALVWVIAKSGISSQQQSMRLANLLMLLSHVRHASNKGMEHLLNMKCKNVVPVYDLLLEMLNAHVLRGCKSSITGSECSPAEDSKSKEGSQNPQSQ
Induced myeloid leukemia cell differentiation protein Mcl-1, sequence (Q07820 whole entry): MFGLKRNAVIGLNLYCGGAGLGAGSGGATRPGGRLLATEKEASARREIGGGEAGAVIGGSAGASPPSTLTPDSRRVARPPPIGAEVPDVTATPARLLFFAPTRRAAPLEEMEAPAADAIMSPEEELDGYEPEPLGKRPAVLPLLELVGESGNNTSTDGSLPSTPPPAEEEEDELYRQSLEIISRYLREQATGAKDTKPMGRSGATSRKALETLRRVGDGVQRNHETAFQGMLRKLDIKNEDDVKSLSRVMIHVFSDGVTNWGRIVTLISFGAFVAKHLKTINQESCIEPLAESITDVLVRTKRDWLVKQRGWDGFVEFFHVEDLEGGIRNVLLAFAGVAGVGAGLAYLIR
Trypsin, sequence (P00761 whole entry): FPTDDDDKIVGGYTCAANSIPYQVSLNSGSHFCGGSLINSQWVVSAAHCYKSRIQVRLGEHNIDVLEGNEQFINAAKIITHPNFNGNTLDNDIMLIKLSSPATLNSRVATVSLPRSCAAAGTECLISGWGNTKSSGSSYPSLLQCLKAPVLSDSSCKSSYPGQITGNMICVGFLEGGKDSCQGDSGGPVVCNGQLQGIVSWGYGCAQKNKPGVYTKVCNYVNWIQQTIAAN
Large T antigen, sequence (P03070 whole entry): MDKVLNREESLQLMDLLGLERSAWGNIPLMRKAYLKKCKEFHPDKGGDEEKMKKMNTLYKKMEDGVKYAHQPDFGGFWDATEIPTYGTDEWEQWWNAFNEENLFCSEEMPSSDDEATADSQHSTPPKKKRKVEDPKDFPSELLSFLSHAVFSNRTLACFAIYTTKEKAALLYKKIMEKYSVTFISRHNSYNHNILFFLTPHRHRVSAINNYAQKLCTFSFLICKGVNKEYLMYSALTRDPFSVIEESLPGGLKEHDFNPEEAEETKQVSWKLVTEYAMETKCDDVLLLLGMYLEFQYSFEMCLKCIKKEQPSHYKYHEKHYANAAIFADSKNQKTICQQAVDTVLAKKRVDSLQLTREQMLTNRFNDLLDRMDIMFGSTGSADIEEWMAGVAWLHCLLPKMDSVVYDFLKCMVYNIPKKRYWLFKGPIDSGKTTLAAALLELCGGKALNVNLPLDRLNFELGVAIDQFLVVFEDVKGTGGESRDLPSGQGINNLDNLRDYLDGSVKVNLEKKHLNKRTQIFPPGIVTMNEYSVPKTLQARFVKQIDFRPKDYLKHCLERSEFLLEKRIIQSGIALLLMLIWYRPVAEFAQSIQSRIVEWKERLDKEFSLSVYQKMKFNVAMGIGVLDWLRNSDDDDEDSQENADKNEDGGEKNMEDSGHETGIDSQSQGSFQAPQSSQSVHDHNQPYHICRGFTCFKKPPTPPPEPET

## Nc1ncnc2oc(-c3ccco3)c(-c3ccco3)c12
[1]
  IC50: 2.92 µM (active)
[2]
  IC50: 4.12 µM (active)
[3]
  IC50: 3.82 µM (active)
[4]
  IC50: 3.4 µM (not active)
[5]
  EC50: 56.7 µM (active)
[6]
  IC50: 2.6 µM (active)
[7]
  IC50: 49.5 µM (active)
[8]
  IC50: > 94.1 µM (inactive)
[9]
  IC50: 21.7 µM (active)
[10]
  IC50: 2.42 µM (active)
[11]
  IC50: > 49.8 µM (not active)

## CC(=NNc1cccc(C(=O)O)c1)c1ccc2c(c1)Nc1ccccc1S2
[12]
  IC50: 0.305 µM (active)

## CC(C)c1oc(=O)cc2c1[C@@H](O)[C@H]1OC(=O)[C@@]3(C)C[C@@H](O)[C@@H](O)[C@@]2(C)C13 (some centres not stated)
[13]
  AC50: 1.63 µM (active)
[14]
  IC50: > 80 µM (inactive)
[15]
  IC50: 30.5 µM (active)

## COc1ccc(C(=O)n2c(SC)nc3cc4c(cc32)OCCO4)cc1
[16]
  IC50: 0.955 µM (active)

## COc1ccc(OC)c(/C=N/c2oc(-c3ccco3)c(-c3ccco3)c2C#N)c1
[17]
  IC50: 6.47 µM (active)
[18]
  AC50: 4.46 µM (active)
[19]
  AC50: 7.23 µM (active)
[2]
  IC50: 6.88 µM (active)
[4]
  IC50: 9.23 µM (not active)
[20]
  IC50: 16.3 µM (active)
[21]
  IC50: 21.1062 µM

## COc1ccc(C(=O)Oc2ccc(/C=N/Nc3ccc(Cl)c(C(=O)O)c3)cc2OC)cc1
[22]
  IC50: 1.5 µM (active)
[23]
  AC50: 99.3 µM (active)
[24]
  IC50: 7.02 µM (active)
[25]
  AC50: > 20 µM (inactive)
